The source of these data is paper PMC11372076, “A dual inhibitor of PIP5K1C and PIKfyve prevents SARS-CoV-2 entry into cells” (Experimental & Molecular Medicine, 2024).

The test system of one assay is SARS-CoV-2. The class given is cell-based.
A further assay relates to Vero cells. The assay can be described thus: Endosomal pH change test with acridine orange. Particulars: 1 µM for 1 h. Type of assay: cell-based. The method, then: This image-based experiment was performed according to our previous report with some modifications. Vero cells were cultured in a glass bottom 35 mm dish (6 × 10^4 cells per well) overnight. Each compound, including 1 µM UNC3230, apilimod or UNI418, was added to Vero cells for 1 h at 37 °C. The cells were stained with acridine orange (Sigma‒Aldrich, A9231) at a final concentration of 4 µg/mL for 30 min. After washing with PBS twice, images were acquired using a confocal microscope (Zeiss LSM 700, Baden-Württemberg, Germany) at two emission wavelengths, 493 to 560 nm and 590 to 720 nm, with excitation at 488 nm. The green-to-red ratio or vacuole size was measured using the built-in software ZEN 3.1.
Fig. 3 UNI418 negatively affects autophagosome-lysosome fusion and endosome acidification. a Live-cell imaging of HEK293T cells stably expressing mCherry-GFP-LC3 treated with 0.5 μM UNI418 at the indicated time points; the images within the white rectangular boxes are magnified on the right side. Scale bar, 30 µm. The number (b) and area (c) of GFP-positive dots per cell were quantified by ImageXpress. d Immunofluorescence images illustrating the inhibition of endolysosomal acidification by UNI418. Vero cells were treated with the mock control or 1 µM UNC3230, apilimod or UNI418 for 1 h at 37 °C. Acridine orange (4 µg/mL) was added to the compound-treated live cells, followed by additional incubation for 30 min. The cells were analyzed by confocal microscopy using two emission wavelengths at 493–560 (green) and 590–720 nm (red) after excitation at 488 nm. Merged images are presented, and images within the white rectangular boxes are magnified on the right side. Original magnification, 630×. The green-to-red fluorescence intensity ratio (e) and the area of fluorescent spots (f) were quantified. b, c, e, f The data are presented as the means ± SEMs, with a minimum of 200 spots. Statistical significance was determined by Student’s t test; *p < 0.05, **p < 0.01, ***p < 0.001 and ****p < 0.0001. n.s., not significant.

Assay [1] deals with Wuhan-Hu-1 spike-pseudotyped virus. The assay can be described thus: microbe, parasite or virus in culture. The class given is cell-based, SARS-CoV-2.
The next assay has as its system RPE1 cells. The assay can be described thus: Western blot of autophagy-monitoring proteins SQSTM1/p62 and LC3-II. The class given is cell-based. The text has this: Fig. 2 UNI418 inhibits autophagy. a Western blot analysis of p62, LC3B-I, LC3B-II and GAPDH in the presence of UNC3230, apilimod and UNI418. b Immunofluorescence staining with LC3B (green) and p62 (red) antibodies upon treatment with UNC3230, apilimod and UNI418, and images within the white rectangular boxes are magnified on the right side. Scale bar, 20 µm. c The area of fluorescence intensity from immunofluorescence images (b) was quantified after UNC3230, apilimod and UNI418 treatments. d, e Quantification of autophagic flux under normal conditions and under HBSS-induced starvation conditions with or without UNI418 treatment. RPE1 cells were treated with UNI418 (0.5 µM or 1 µM) for 2 h in the presence or absence of a lysosomal inhibitor (bafilomycin A1, BFA). Representative Western blot images (d) and the graph showing the average of 4 independent experiments (e). The error bars indicate the S.D. Statistical analysis was performed using two-way ANOVA; *p < 0.05, ***p < 0.001.
Supplementary Materials and Methods
The whole cell extracts were prepared by lysis of harvested cells with M -PER Mammalian protein extraction reagent (Thermo Fisher Scientific). The protein concentrations were determined by Bradford protein assay (Bio- Rad). The 10 to 20 μ g of prepared proteins were separated by the SDS-PAGE and transferred to PVDF membrane, which were then blocked in 5% skim milk for 30 minutes at room temperature. […] The images were obtained and quantified by Fusion solo ChemiDoc system (Vilber).
Autophagic flux assay was analyzed essentially as previously described1,2.
Briefly, RPE1 cells were treated with UNI418 (0, 0.5, or 1 µM) for 2 h with/without bafilomycin A1 to inhibit lysosomal degradation under normal growth media or HBSS. […] The LC3- II bands were quantified using Fusion Solo ChemiDoc system (Vilber) and normalized to GAPDH bands.
Autophagy flux was calculated by subsidizing the lysosomal inhibitor-treated cells to non- treatment cells in both normal growth media and HBSS-induced starvation with 0, 0.5, or 1 µM UNI418. […]
In general terms: A western blot detects proteins with antibodies after separation by electrophoresis.

The test system of another assay is cathepsin D. The assay can be described thus: Cathepsin D maturation by Western blot. The class given is cell-based.

pIC50: −log10 of the molar value.

With `c1ccc(-c2cc(Nc3nc(-c4ccncc4)nc4ccccc34)n[nH]2)cc1` [UNI418, N -(5-phenyl-1 H -pyrazol-3-yl)-2-(4-pyridinyl)-4-quinazolinamine], the “reduction in the levels of the viral NP gene (viral genome copies)” value in the assay with SARS-CoV-2 is listed as “approximately 2 log”. For the same molecule, the “green-to-red ratio of fluorescent spots relative to mock-treated sample” value in the assay on Vero cells is on record as 6.3 fold. The pseudotyped virus entry entry in assay [1] is “markedly inhibited”. The “accumulation of SQSTM1/p62 and LC3-II” value in the assay with RPE1 cells is “strongly induced”. Besides, in the assay on cathepsin D, the “proteolytic cleavage (maturation) of cathepsin D” value is reported as “considerably inhibited”.
As for `Cc1cccc(/C=N/Nc2cc(N3CCOCC3)nc(OCCc3ccccn3)n2)c1` [apilimod], in the assay on SARS-CoV-2, the “reduction in the levels of the viral NP gene (viral genome copies)” value was “approximately 2 log”. Also, in the assay with Vero cells, the “green-to-red ratio of fluorescent spots relative to mock-treated sample” value is listed as 2.2 fold. The pIC50 in assay [1] (Severe acute respiratory syndrome coronavirus 2, 293T/ACE2, read-out: concentration that inhibited spike-mediated viral entry by 50% compared to maximal inhibition) is 8.30. For the same molecule, the “accumulation of SQSTM1/p62 and LC3-II” value in the assay with RPE1 cells is on record as “strongly induced”. Further, the “proteolytic cleavage (maturation) of cathepsin D” value in the assay on cathepsin D is “largely inhibited”.
